In ChEMBL document CHEMBL3885861, “Open TG-GATES”:

Species: Rattus norvegicus
Experiment: Open TG-GATES - Regimen: Daily Repeat
Type: toxicity, organism-based, Sprague-Dawley
Design: regimen Daily Repeat, gender Male, age 6 weeks
Conditions: in vivo, po, route gavage; for gamma-GTP / ALP / ALT / AST / BUN / CRE / Ca / Cl / DBIL / GLC / IP / K / LDH / Na / PL / RALB / TBIL / TC / TG / TP: tissue Plasma; for APTT / Bas / Eos / Fbg / Hb / Ht / Lym / MCH / MCHC / MCV / Mono / Neu / PT / Plat / RBC / Ret / WBC: tissue Blood; for KIDNEY_L / KIDNEY_R / KIDNEY_TOTAL: tissue Kidney; for LIVER: tissue Liver
[1] = 100 mg/kg, 72 h, dose level Low, time 3 day
[2] = 100 mg/kg, […], dose level Low, time 7 day
[3] = 100 mg/kg, […], dose level Low, time 14 day
[4] = 100 mg/kg, […], dose level Low, time 28 day

SMILES: COC(=O)C1=C(C)NC(C)=C(C(=O)OC)C1c1ccccc1[N+](=O)[O-] [NIFEDIPINE]
- gamma-GTP (0 mg/kg, […], dose level Control, time 28 day): 0.8 IU/L
- TERMINAL_BW [1]: 223 g
- APTT [1]: 17.6 s
- Bas [1]: 0%
- Eos [1]: 1%
- Fbg [1]: 281.6 mg/dL
- Hb [1]: 13.6 g/dL
- Ht [1]: 42.3%
- Lym [1]: 71.4%
- MCH [1]: 20.7 pg
- MCHC [1]: 32.3%
- MCV [1]: 64 fL
- Mono [1]: 3.4%
- Neu [1]: 23.6%
- PT [1]: 13.8 s
- Plat [1]: 130.7 x10_4/uL
- RBC [1]: 660.2 x10_4/ul
- Ret [1]: 9.2%
- WBC [1]: 96 x10_2/uL
- KIDNEY_L [1]: 0.9 g
- KIDNEY_R [1]: 0.9 g
- KIDNEY_TOTAL [1]: 1.9 g
- LIVER [1]: 11 g
- ALP [1]: 1508 IU/L
- ALT [1]: 46.6 IU/L
- AST [1]: 65.8 IU/L
- BUN [1]: 15 mg/dL
- CRE [1]: 0.2 mg/dL
- Ca [1]: 10.9 mg/dL
- Cl [1]: 107 meq/L
- DBIL [1]: 0.014 mg/dL
- GLC [1]: 173.4 mg/dL
- IP [1]: 6.8 mg/dL
- K [1]: 4.5 meq/L
- LDH [1]: 88.6 IU/L
- Na [1]: 143.2 meq/L
- PL [1]: 152 mg/dL
- RALB [1]: 2.7 g/dL
- TBIL [1]: 0.028 mg/dL
- TC [1]: 82.2 mg/dL
- TG [1]: 98.8 mg/dL
- TP [1]: 5.7 g/dL
- gamma-GTP [1]: 1 IU/L
- TERMINAL_BW [2]: 261.8 g
- TERMINAL_BW [3]: 322.2 g
- TERMINAL_BW [4]: 378.4 g
- APTT [2]: 14.8 s
- Bas [2]: 0.2%
- Eos [2]: 1.4%
- Fbg [2]: 283.4 mg/dL
- Hb [2]: 13.8 g/dL
- Ht [2]: 42.1%
- Lym [2]: 73%
- MCH [2]: 20.9 pg
- MCHC [2]: 32.8%
- MCV [2]: 63.8 fL
- Mono [2]: 3%
- Neu [2]: 21.8%
- PT [2]: 13.7 s
- Plat [2]: 125.1 x10_4/uL
- RBC [2]: 659.6 x10_4/ul
- Ret [2]: 6.8%
- WBC [2]: 105.6 x10_2/uL
- APTT [3]: 19 s
- Bas [3]: 0.2%
- Eos [3]: 1%
- Fbg [3]: 260.4 mg/dL
- Hb [3]: 14.5 g/dL
- Ht [3]: 43.7%
- Lym [3]: 72.4%
- MCH [3]: 21.1 pg
- MCHC [3]: 33.2%
- MCV [3]: 63.6 fL
- Mono [3]: 2.8%
- PT [3]: 14 s
- Plat [3]: 113.8 x10_4/uL
- RBC [3]: 688 x10_4/ul
- Ret [3]: 5.4%
- WBC [3]: 110.8 x10_2/uL
- APTT [4]: 17.6 s
- Bas [4]: 0%
- Eos [4]: 1%
- Fbg [4]: 281.6 mg/dL
- Hb [4]: 13.6 g/dL
- Ht [4]: 42.3%
- Lym [4]: 71.4%
- MCH [4]: 20.7 pg
- MCHC [4]: 32.3%
- MCV [4]: 64 fL
- Mono [4]: 3.4%
- Neu [4]: 23.6%
- PT [4]: 13.8 s
- Plat [4]: 130.7 x10_4/uL
- RBC [4]: 660.2 x10_4/ul
- Ret [4]: 9.2%
- WBC [4]: 96 x10_2/uL
- KIDNEY_L [2]: 1.1 g
- KIDNEY_R [2]: 1.1 g
- KIDNEY_TOTAL [2]: 2.1 g
- KIDNEY_L [3]: 1.2 g
- KIDNEY_R [3]: 1.2 g
- KIDNEY_TOTAL [3]: 2.5 g
- KIDNEY_L [4]: 1.3 g
- KIDNEY_R [4]: 1.3 g
- KIDNEY_TOTAL [4]: 2.6 g
- LIVER [2]: 13.2 g
- LIVER [3]: 15 g
- LIVER [4]: 15.4 g
- ALP [2]: 1407 IU/L
- ALT [2]: 47 IU/L
- AST [2]: 67.4 IU/L
- BUN [2]: 17.4 mg/dL
- CRE [2]: 0.2 mg/dL
- Ca [2]: 10.7 mg/dL
- Cl [2]: 106.2 meq/L
- DBIL [2]: 0.014 mg/dL
- GLC [2]: 174.8 mg/dL
- IP [2]: 6.8 mg/dL
- K [2]: 4.2 meq/L
- LDH [2]: 86.4 IU/L
- Na [2]: 143.8 meq/L
- PL [2]: 144 mg/dL
- RALB [2]: 2.7 g/dL
- TBIL [2]: 0.028 mg/dL
- TC [2]: 77.4 mg/dL
- TG [2]: 93.4 mg/dL
- TP [2]: 5.9 g/dL
- gamma-GTP [2]: 1 IU/L
- ALP [3]: 1646.4 IU/L
- ALT [3]: 44.4 IU/L
- AST [3]: 71.4 IU/L
- BUN [3]: 17.6 mg/dL
- CRE [3]: 0.2 mg/dL
- Ca [3]: 11 mg/dL
- Cl [3]: 105.8 meq/L
- DBIL [3]: 0.012 mg/dL
- GLC [3]: 177.4 mg/dL
- IP [3]: 6.7 mg/dL
- K [3]: 4.2 meq/L
- LDH [3]: 46.2 IU/L
- Na [3]: 143.2 meq/L
- PL [3]: 149.6 mg/dL
- RALB [3]: 2.7 g/dL
- TBIL [3]: 0.026 mg/dL
- TC [3]: 73.6 mg/dL
- TP [3]: 5.9 g/dL
- gamma-GTP [3]: 1 IU/L
- ALP [4]: 1032.8 IU/L
- ALT [4]: 39.6 IU/L
- AST [4]: 71.2 IU/L
- BUN [4]: 17.2 mg/dL
- CRE [4]: 0.3 mg/dL
- Ca [4]: 10.4 mg/dL
- Cl [4]: 107.4 meq/L
- DBIL [4]: 0.012 mg/dL
- GLC [4]: 167.8 mg/dL
- IP [4]: 5.6 mg/dL
- K [4]: 3.9 meq/L
- LDH [4]: 61.8 IU/L
- Na [4]: 143.8 meq/L
- PL [4]: 135 mg/dL
- RALB [4]: 2.8 g/dL
- TBIL [4]: 0.024 mg/dL
- TC [4]: 64.6 mg/dL
- TG [4]: 117.8 mg/dL
- TP [4]: 6.1 g/dL
